From patent publication US9856216B2, “Compounds as TNIK, IKKε and TBK1 inhibitors and pharmaceutical composition comprising same” (GREEN CROSS CORPORATION, priority 2015, dated 2018) come the findings set out here.

The test concerns the target T1, TNIK (Homo sapiens, UniProt Q9UKE5).
T1 construct: purchased Promega V4158
Kind of test: ADP-Glo Kinase Assay, inhibition activity on TNIK. The conditions noted are these: for IC50: read-out: TNIK. It counts as biochemical. The procedure:
The inhibition activities on TNIK, IKKε and TBK1 were measured by a luminometer, TNIK/IKKε/TBK1 Kinase Enzyme System (Promega, Ca# V4158; Invitrogen, PR8031B, Promega, Ca# V3991) and ADP-Glo Kinase Assay using ADP-Glo™ Kinase Analysis Kit (Promega, Ca# V9101) and a kinase reaction buffer [40 mM Tris(pH 7.5), 20 mM MgCl2, 0.1 mg/mL BSA] in accordance with the manufacturer's protocol.
For orientation: ADP-Glo first removes unused ATP, then detects ADP through luciferase.

Structures are written as SMILES.

T1 sequence (Q9UKE5 1-367 limits assumed): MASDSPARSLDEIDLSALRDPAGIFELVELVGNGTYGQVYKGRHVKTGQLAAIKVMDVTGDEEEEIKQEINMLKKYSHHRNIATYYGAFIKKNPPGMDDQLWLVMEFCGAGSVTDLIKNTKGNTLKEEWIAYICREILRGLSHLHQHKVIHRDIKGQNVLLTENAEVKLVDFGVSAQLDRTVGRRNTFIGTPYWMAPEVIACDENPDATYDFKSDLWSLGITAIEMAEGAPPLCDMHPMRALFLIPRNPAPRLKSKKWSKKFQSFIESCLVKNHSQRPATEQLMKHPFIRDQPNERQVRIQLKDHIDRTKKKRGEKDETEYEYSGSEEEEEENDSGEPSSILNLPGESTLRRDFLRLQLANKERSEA

As for `CN(C)CCNc1ccc(C(=O)Nc2ccc(-c3cccc(F)c3F)c3c2C(=O)NC3)cc1` [Example 367, N-(7-(2,3-difluorophenyl)-3-oxoisoindolin-4-yl)-4-((2-(dimethylamino)ethyl)amino)benzamide], the IC50 was 280 nM.
Regarding `CN(C)CCCNc1ccc(C(=O)Nc2ccc(-c3cccc(F)c3F)c3c2C(=O)NC3)cc1` [Example 368, N-(7-(2,3-difluorophenyl)-3-oxoisoindolin-4-yl)-4-((3-(dimethylamino)propyl)amino)benzamide], the “TNIK (μM)” value is “Insoluble”.
For `O=C(Nc1ccc(-c2ccccc2)c2c1C(=O)NC2)c1ccc(NCCN2CCCCCC2)cc1` [Example 369, 4-((2-(Azepan-1-yl)ethyl)amino)-N-(3-oxo-7-phenylisoindolin-4-yl)benzamide], the IC50 amounted to 560 nM.
Same read-out and setting: as for `O=C(Nc1ccc(-c2ccccc2)c2c1C(=O)NC2)c1ccc(NCCCN2CCCCC2)cc1` [Example 370, N-(3-oxo-7-phenylisoindolin-4-yl)-4-((3-(piperidin-1-yl)propyl)amino)benzamide], the figure is 510 nM.
Regarding `O=C(Nc1ccc(-c2cccs2)c2c1C(=O)NC2)c1ccc(NCCO)cc1` [Example 371, 4-((2-Hydroxyethyl)amino)-N-(3-oxo-7-(thiophen-2-yl)isoindolin-4-yl)benzamide], the “TNIK (μM)” value is recorded as “Insoluble”.
Regarding `COCCNc1ccc(C(=O)Nc2ccc(-c3cccs3)c3c2C(=O)NC3)cc1` [Example 372, 4-((2-Methoxyethyl)amino)-N-(3-oxo-7-(thiophen-2-yl)isoindolin-4-yl)benzamide], the IC50 came to 1360 nM.
On the same count and under the same terms, as for `CN(C)CCNc1ccc(C(=O)Nc2ccc(-c3cccs3)c3c2C(=O)NC3)cc1` [Example 373, 4-((2-(Dimethylamino)ethyl)amino)-N-(3-oxo-7-(thiophen-2-yl)isoindolin-4-yl)benzamide], the figure is 400 nM.
Same read-out and setting: as for `O=C(Nc1ccc(-c2cccs2)c2c1C(=O)NC2)c1ccc(NCCN2CCCCC2)cc1` [Example 374, N-(3-oxo-7-(thiophen-2-yl)isoindolin-4-yl)-4-((2-(piperidin-1-yl)ethyl)amino)benzamide], the figure is 480 nM; as for `O=C(Nc1ccc(-c2cccs2)c2c1C(=O)NC2)c1ccc(NCCN2CCOCC2)cc1` [Example 375, 4-((2-Morpholinoethyl)amino)-N-(3-oxo-7-(thiophen-2-yl)isoindolin-4-yl) benzamide], 540 nM; as for `O=C(Nc1ccc(-c2cccc3ncoc23)c2c1C(=O)NC2)c1ccc(NCCN2CCCC2)cc1` [Example 376, N-(7-(benzo[d]oxazol-7-yl)-3-oxoisoindolin-4-yl)-4-((2-(pyrrolidin-1-yl)ethyl)amino)benzamide], 72 nM.
Still for that read-out and setting: with `Cc1nc2cccc(-c3ccc(NC(=O)c4ccc(NCCN5CCCC5)cc4)c4c3CNC4=O)c2o1` [Example 377, N-(7-(2-methylbenzo[d]oxazol-7-yl)-3-oxoisoindolin-4-yl)-4-((2-(pyrrolidin-1-yl)ethyl)amino)benzamide] the figure was 360 nM.
Take `CN1CCN(CCNc2ccc(C(=O)Nc3ccc(-c4cccs4)c4c3C(=O)NC4)cc2)CC1` [Example 378, 4-((2-(4-Methylpiperazin-1-yl)ethyl)amino)-N-(3-oxo-7-(thiophen-2-yl)isoindolin-4-yl)benzamide]: the IC50 was found to be 130 nM.
As to `CN1CCN(CCNc2ccc(C(=O)Nc3ccc(-c4ccccc4)c4c3C(=O)NC4)cc2)CC1` [Example 379, 4-((2-(4-Methylpiperazin-1-yl)ethyl)amino)-N-(3-oxo-7-phenylisoindolin-4-yl)benzamide], the IC50 came out at 350 nM.
As to `O=C(Nc1ccc(-c2ccccc2)c2c1C(=O)NC2)c1ccc(NCCO)cc1` [Example 380, 4-((2-Hydroxyethyl)amino)-N-(3-oxo-7-phenylisoindolin-4-yl) benzamide], the IC50 is 230 nM.
Same read-out and setting: as for `CN(C)CCCNc1ccc(C(=O)Nc2ccc(-c3ccccc3)c3c2C(=O)NC3)cc1` [Example 381, 4-((3-(Dimethylamino)propyl)amino)-N-(3-oxo-7-phenylisoindolin-4-yl) benzamide], the figure is 310 nM.
Still for that read-out and setting: with `O=C(Nc1ccc(-c2ccccc2)c2c1C(=O)NC2)c1ccc(NCCCO)cc1` [Example 382, 4-((3-Hydroxypropyl)amino)-N-(3-oxo-7-phenylisoindolin-4-yl) benzamide] the figure was 330 nM; with `O=C(Nc1ccc(-c2ccccc2)c2c1C(=O)NC2)c1ccc(NCCCCO)cc1` [Example 383, 4-((4-Hydroxybutyl)amino)-N-(3-oxo-7-phenylisoindolin-4-yl) benzamide], 380 nM; with `O=C(Nc1ccc(-c2cc3ccccc3o2)c2c1C(=O)NC2)c1ccc(NCCN2CCCC2)cc1` [Example 384, N-(7-(benzofuran-2-yl)-3-oxoisoindolin-4-yl)-4-((2-(pyrrolidin-1-yl)ethyl)amino)benzamide], 1110 nM.
Still for that read-out and setting: as for `O=C(Nc1ccc(-c2ccc3ncccc3c2)c2c1C(=O)NC2)c1ccc(NCCN2CCCC2)cc1` [Example 385, N-(3-oxo-7-(quinolin-6-yl)isoindolin-4-yl)-4-((2-(pyrrolidin-1-yl)ethyl)amino)benzamide], the figure is 780 nM.
For `O=C(Nc1ccc(-c2cccc3ncccc23)c2c1C(=O)NC2)c1ccc(NCCN2CCCC2)cc1` [Example 386, N-(3-oxo-7-(quinolin-5-yl)isoindolin-4-yl)-4-((2-(pyrrolidin-1-yl)ethyl)amino)benzamide], the IC50 came out at 99 nM.
The same measure, in the same setting: with `O=C(Nc1ccc(-c2ccnc3ccccc23)c2c1C(=O)NC2)c1ccc(NCCN2CCCC2)cc1` [Example 387, N-(3-oxo-7-(quinolin-4-yl)isoindolin-4-yl)-4-((2-(pyrrolidin-1-yl)ethyl)amino)benzamide] the figure was 33 nM.
Same read-out and setting: with `O=C(Nc1ccc(C(=O)O)c2c1C(=O)NC2)c1ccc(F)cc1` [Example 388, 7-(4-Fluorobenzamido)-1-oxoisoindoline-4-carboxylic acid] the figure was 3890 nM.
The same measure, in the same setting: as for `CNC(=O)c1ccc(NC(=O)c2ccc(F)cc2)c2c1CNC2=O` [Example 389, 7-(4-Fluorobenzamido)-N-methyl-1-oxoisoindoline-4-carboxamide], the figure is over 20000 nM; as for `CNC(=O)c1ccc(NC(=O)c2ccc(NCCN3CCCC3)cc2)c2c1CNC2=O` [Example 390, N-methyl-1-oxo-7-(4-((2-(pyrrolidin-1-yl)ethyl)amino)benzamido)isoindoline-4-carboxamide], 3870 nM; as for `O=C(Nc1ccc(C(=O)N2CCCC2)c2c1C(=O)NC2)c1ccc(F)cc1` [Example 391, 4-Fluoro-N-(3-oxo-7-(pyrrolidine-1-carbonyl)isoindolin-4-yl) benzamide], over 20000 nM.
In the case of `O=C(Nc1ccc(C(=O)N2CCCC2)c2c1C(=O)NC2)c1ccc(NCCN2CCCC2)cc1` [Example 392, N-(3-oxo-7-(pyrrolidine-1-carbonyl)isoindolin-4-yl)-4-((2-(pyrrolidin-1-yl)ethyl)amino)benzamide], the IC50 was over 20000 nM.
The same measure, in the same setting: with `CC(C)(O)c1ccc(NC(=O)c2ccc(F)cc2)c2c1CNC2=O` [Example 393, 4-Fluoro-N-(7-(2-hydroxypropan-2-yl)-3-oxoisoindolin-4-yl) benzamide] the figure was 2570 nM; with `CC(C)(O)c1ccc(NC(=O)c2ccc(NCCN3CCCC3)cc2)c2c1CNC2=O` [Example 394, N-(7-(2-hydroxypropan-2-yl)-3-oxoisoindolin-4-yl)-4-((2-(pyrrolidin-1-yl)ethyl)amino)benzamide], 5440 nM; with `O=C(Nc1ccc(O)c2c1C(=O)NC2)c1ccc(F)cc1` [Example 396, 4-Fluoro-N-(7-hydroxy-3-oxoisoindolin-4-yl)benzamide], 1290 nM.
`CC(=O)Nc1ccc(C(=O)Nc2ccc(-c3ccccc3)c3c2C(=O)NCC3)cc1` [Example 397, 4-Acetamido-N-(1-oxo-5-phenyl-1,2,3,4-tetrahydroisoquinolin-8-yl)benzamide]: the IC50 was found to be 5400 nM.
Regarding `O=C(Nc1ccc(-c2ccccc2)c2c1C(=O)NCC2)c1ccccc1` [Example 398, N-(1-oxo-5-phenyl-1,2,3,4-tetrahydroisoquinolin-8-yl) benzamide], the IC50 amounted to 3300 nM.
On the same count and under the same terms, as for `O=C(Nc1ccc(-c2ccccc2)c2c1C(=O)NCC2)c1ccco1` [Example 399, N-(1-oxo-5-phenyl-1,2,3,4-tetrahydroisoquinolin-8-yl)furan-2-carboxamide], the figure is 1800 nM; as for `COc1cccc(-c2ccc(NC(=O)c3ccc(F)cc3)c3c2CCNC3=O)c1OC` [Example 400, N-(5-(2,3-dimethoxyphenyl)-1-oxo-1,2,3,4-tetrahydroisoquinolin-8-yl)-4-fluorobenzamide], 8180 nM; as for `O=C(Nc1ccc(-c2ccccc2)c2c1C(=O)NCC2)c1ccc(NCCN2CCCC2)cc1` [Example 401, N-(1-oxo-5-phenyl-1,2,3,4-tetrahydroisoquinolin-8-yl)-4-((2-(pyrrolidin-1-yl)ethyl)amino)benzamide], 2150 nM.
On the same count and under the same terms, with `COc1ccccc1-c1ccc(NC(=O)c2ccc(NCCN3CCCC3)cc2)c2c1CCNC2=O` [Example 402, N-(5-(2-methoxyphenyl)-1-oxo-1,2,3,4-tetrahydroisoquinolin-8-yl)-4-((2-(pyrrolidin-1-yl)ethyl)amino)benzamide] the figure was 2380 nM; with `O=C(Nc1ccc(Br)c2c1C(=O)NCC2)c1ccc(NCCN2CCCC2)cc1` [Example 403, N-(5-bromo-1-oxo-1,2,3,4-tetrahydroisoquinolin-8-yl)-4-((2-(pyrrolidin-1-yl)ethyl)amino)benzamide], 9820 nM; with `O=C(Nc1ccc(Sc2ccccc2)c2c1C(=O)NC2)c1ccc(F)cc1` [Example 404, 4-Fluoro-N-(3-oxo-7-(phenylthio)isoindolin-4-yl)benzamide], over 20000 nM.
On to `O=C(Nc1ccc(S(=O)(=O)c2ccccc2)c2c1C(=O)NC2)c1ccccc1` [Example 406, N-(3-oxo-7-(phenylsulfonyl)isoindolin-4-yl)benzamide], for which the IC50 was over 20000 nM.
